Experiments:
[1] = test system: acetylcholine or histamine bronchoconstriction; test: Plethysmograph guinea pig assay for bronchoprotective efficacy and duration; settings: doses ranging from 3 μg/mL to 300 μg/mL, inhalation
Description: In this assay, the bronchoprotective efficacy and duration of test compounds was determined using a guinea pig assay.
Groups of 6 male guinea pigs (Duncan-Hartley (HsdPoc:DH) Harlan, Madison, Wis.) weighing between 250 and 350 g were individually identified by cage cards. Throughout the study, animals were allowed access to food and water ad libitum. Test compounds were administered via inhalation over 10 minutes in a whole-body exposure dosing chamber (R&S Molds, San Carlos, Calif.). The dosing chambers were arranged so that an aerosol was simultaneously delivered to 6 individual chambers from a central manifold. Guinea pigs were exposed to an aerosol of a test compound or vehicle (WFI). […] The gas flow through the nebulizer at this operating pressure was approximately 3 L per minute. […] This value was measured gravimetrically by comparing pre- and post-nebulization weights of the filled nebulizer. […]
The pulmonary evaluation was initiated after determining that baseline values were within the range of 0.3 to 0.9 mL per cm H2O for compliance and within the range of 0.1 to 0.199 cm H2O per mL per second for resistance. […] The changes in volume over time that occurred within the plethysmograph with each breath were measured via a Buxco pressure transducer. By integrating this signal over time, a measurement of flow was calculated for each breth. […]

[2] = test system: histamine-induced bronchoconstriction; test: Einthoven assay, bronchoprotective efficacy against histamine; settings: 1.5 hours post-dose, inhalation
Description: (§1) In this assay, the bronchoprotective efficacy and duration of test compounds were determined using guinea pigs. […] In this assay, changes in ventilation pressure serve as a surrogate measure of airway resistance. Following pre-treatment with a test compound, muscarinic antagonist potency was determined using bronchoconstrictor dose-response curves to intravenous methacholine in the presence of propranolol. Similarly, β2 agonist bronchoprotective potency was determined using histamine. Combined bronchoprotective potency was determined using methacholine in the absence of propranolol.
(§2) The assay was conducted using male Duncan-Hartley guinea pigs (Harlan, Indianapolis, Ind.), weighing between 250 and 400 g. A test compound or vehicle (i.e., sterile water) was dosed by inhalation (IH) over a 10 minute time period in a whole body exposure dosing chamber (R+S Molds, San Carlos, Calif.) using 5 mL of dosing solution. […] Pulmonary function was evaluated at various time points after inhalation dosing.
(§3) The trachea was then dissected free and cannulated with a 14G needle (#NE-014, Small Parts, Miami Lakes, Fla.). […] Body temperature was maintained at 37° C. using a heating pad. […] The changes in VP were recorded on a Biopac Windows data collection interface. […] Changes in VP were recorded using the Acknowledge Data Collection Software (Santa Barbara, Calif.). […]
(§4) Change in VP was measured in cm of water. […]

[3] = test system: methacholine-induced bronchoconstriction; test: Einthoven assay, bronchoprotective efficacy against methacholine; settings: 1.5 hours post-dose, inhalation
Description: as §1, §2, §3, §4

bronchoconstriction = test: Einthoven assay, duration of bronchoprotection; settings: inhalation
Description: as §1, §2, §3, §4

cM5 receptor = cM5 receptor (UniProt Q5IS53); test: Blockade of agonist-mediated calcium release via FLIPR; type: cell-based; settings: CHO cells expressing cM5, read-out: Kobs
cM5 receptor, sequence (Q5IS53 whole entry): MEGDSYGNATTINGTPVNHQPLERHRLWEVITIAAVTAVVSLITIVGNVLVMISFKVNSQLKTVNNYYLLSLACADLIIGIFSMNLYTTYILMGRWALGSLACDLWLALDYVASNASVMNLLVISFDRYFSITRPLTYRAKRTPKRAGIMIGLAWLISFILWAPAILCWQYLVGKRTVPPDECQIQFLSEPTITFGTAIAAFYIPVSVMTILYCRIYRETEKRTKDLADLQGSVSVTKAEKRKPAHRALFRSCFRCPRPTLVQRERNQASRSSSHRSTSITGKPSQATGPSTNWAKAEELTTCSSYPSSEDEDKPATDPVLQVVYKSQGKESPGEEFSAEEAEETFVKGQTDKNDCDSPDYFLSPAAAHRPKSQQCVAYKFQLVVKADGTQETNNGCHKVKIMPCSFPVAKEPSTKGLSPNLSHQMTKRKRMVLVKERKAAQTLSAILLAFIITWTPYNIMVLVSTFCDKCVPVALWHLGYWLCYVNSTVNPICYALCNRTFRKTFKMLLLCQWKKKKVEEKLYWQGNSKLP
Description: In this functional assay, the functional potency of a test compound as an antagonist of hM1, hM3 and […] receptors was determined by measuring the ability of the test compound to inhibit agonist-mediated increases in intracellular calcium.
CHO cells stably expressing the receptors were seeded into 96-well FLIPR plates the night before the assay was done. Seeded cells were washed twice with FLIPR buffer (10 mM HEPES, pH 7.4, 2 mM calcium chloride, 2.5 mM probenecid in Hank's Buffered Salt Solution (HBSS) without calcium and magnesium) using Cellwash (MTX Labsystems, Inc.) to remove growth media. After washing, each well contained 50 μL of FLIPR buffer. […]
The dose-dependent stimulation of intracellular Ca^2+ release for oxotremorine was determined so that the test compound could be measured against oxotremorine stimulation at an EC90 concentration. […]
The parameters used for the FLIPR were: exposure length of 0.4 seconds, laser strength of 0.5 watts, excitation wavelength of 488 nm, and emission wavelength of 550 nm. Baseline was determined by measuring the change in fluorescence for 10 seconds prior to addition of oxotremorine. Following oxotremorine stimulation, the FLIPR continuously measured the change of fluorescence every 0.5 to 1 second for 1.5 minutes to capture the maximum fluorescence change. […]

[4] = target: T1, human β2 adrenergic receptor (Homo sapiens, UniProt P07550); test: Whole-cell cAMP Flashplate assay with lung epithelial cell line (BEAS-2B) endogenously expressing β2 receptor; type: cell-based; settings: BEAS-2B cells, compared with full β2 agonist isoproterenol (1.0)
T1 construct: a cell line expressing endogenous levels of the β2 adrenergic receptor; host or cells: BEAS-2B human lung epithelial cell line
T1 sequence (P07550 whole entry): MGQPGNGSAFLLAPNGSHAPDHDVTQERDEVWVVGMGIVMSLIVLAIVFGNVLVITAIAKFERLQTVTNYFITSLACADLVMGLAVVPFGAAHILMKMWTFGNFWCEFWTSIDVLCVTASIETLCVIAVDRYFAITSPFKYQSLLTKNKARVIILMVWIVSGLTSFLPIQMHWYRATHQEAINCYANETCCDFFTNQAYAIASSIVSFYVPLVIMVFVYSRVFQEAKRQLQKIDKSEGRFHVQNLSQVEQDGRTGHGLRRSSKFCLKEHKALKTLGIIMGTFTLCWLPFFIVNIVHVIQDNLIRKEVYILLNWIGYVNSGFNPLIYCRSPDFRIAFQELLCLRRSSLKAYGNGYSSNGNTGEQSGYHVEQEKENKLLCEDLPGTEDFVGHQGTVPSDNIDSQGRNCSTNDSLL
Description: In this assay, the agonist potency and intrinsic activity of a test compound were determined using a cell line expressing endogenous levels of the β2 adrenergic receptor.
On the day of the assay, cells were rinsed with PBS, lifted by scraping with 5 mM EDTA in PBS, and counted. Cells were pelleted by centrifugation at 1,000 rpm and re-suspended in stimulation buffer pre-warmed to 37° C. at a final concentration of 600,000 cells/mL. Cells were used at a final concentration of 100,000 to 120,000 cells/well in this assay. […] Plates were sealed, incubated over night at 4° C. and counted the next morning in a Topcount scintillation counter (Packard BioScience Co., Meriden, Conn.). […] Data were analyzed by nonlinear regression analysis with the GraphPad Prism Software package (GraphPad Software, Inc., San Diego, Calif.) using the 4-parameter model for sigmoidal dose-response.

How did the “bronchoprotection at 24 hours post-dose” value [1] turn out when `O=CNc1cc([C@@H](O)CNCc2ccc(NC(=O)CCN3CCC(OC(=O)Nc4ccccc4-c4ccccc4)CC3)cc2)ccc1O` [compound 50] was run?
Its value is “no significant bronchoprotection”.

`Cc1cc(NC(=O)CCN2CCC(OC(=O)Nc3ccccc3-c3ccccc3)CC2)c(C)cc1CNC[C@H](O)c1ccc(O)c(NC=O)c1` [compound IIa, biphenyl-2-ylcarbamic acid 1-[2-(4-{[(R)-2-(3-formylamino-4-hydroxyphenyl)-2-hydroxyethylamino]methyl}-2,5-dimethylphenylcarbamoyl)ethyl]piperidin-4-yl ester] was tested. Which ID50 [2] did it give?
Its ID50 is “less than 50 μg/mL”.

What about the ID50 [3] of the same compound?
The ID50 was “less than 50 μg/mL”.

And the “duration of significant bronchoprotection” value (bronchoconstriction; single sub-maximal dose 100 μg/mL)?
Its value is “up to 72 hours”.

And the Ki (cM5 receptor)?
Its Ki is under 10 nM.

And the intrinsic activity [4]?
Its intrinsic activity is “greater than 0.3”.

How did the “duration of significant bronchoprotection” value (bronchoconstriction; 10 μg/mL) turn out when `C[N+]1(C)[C@@H]2C[C@@H](OC(=O)C(O)(c3cccs3)c3cccs3)C[C@H]1[C@@H]1O[C@@H]12` [tiotropium, reference compound] was run?
The value was “greater than 72 hours”.

Source: patent publication US8134006B2, “Dialkylphenyl compounds having β2 adrenergic receptor agonist and muscarinic receptor antagonist activity” (Theravance, Inc., priority 2006, dated 2012)
